Assay results: ChEMBL document CHEMBL1159116, “Discovery of C-imidazole azaheptapyridine FPT inhibitors” (Bioorg Med Chem Lett, 2010); call rule not given here

Key:
NIH3T3 = assay: Cytotoxicity against mouse H-Ras transformed NIH/3T3 cells by soft agar colony formation assay; type: functional, cell-based
[1] = Inhibition of farnesyl protein transferase assessed as transfer of [3H]farnesyl from [3H]farnesyl pyrophosphate to […]
[2] = (§1) AUC (0 to 6 hrs) in rat at 10 mg/kg; type: ADME, organism-based, Plasma; design: time < 6 hr, dose 10 mg/kg; conditions: plasma
Rattus norvegicus = assay: as §1; type: ADME, organism-based, Plasma; design: time < 6 hr, dose 10 mg/kg; conditions: in vivo, 6 h
[3] = Mus musculus, NIH3T3, read-out: IC50

| SMILES | IC50 (NIH3T3; [3]) [nM] | IC50 [1] [nM] | AUC(0-t) at 6 h [2] [µM·h] | IC50 (NIH3T3; nih3t3) | AUC (Rattus norvegicus) [µM·h] |
| --- | --- | --- | --- | --- | --- |
| Cn1cncc1[C@H](O)C1=Cc2cccnc2[C@@H](N2CCN(C(=O)OC(C)(C)C)CC2)c2ccc(Cl)cc21 | 0.5 | 0.38 | 2.57 | – | – |
| Cn1cncc1[C@H](O)C1=Cc2cccnc2[C@@H](N2CCN(C(=O)NC3CCCCC3)CC2)c2ccc(Cl)cc21 | 18 | 0.47 | – | – | – |
| Cn1cncc1[C@H](O)C1=Cc2cccnc2[C@@H](N2CCN(C(=O)NC(C)(C)C)CC2)c2ccc(Cl)cc21 | 0.5 | 0.4 | – | – | – |
| Cn1cncc1[C@H](O)C1=Cc2cccnc2[C@@H](N2CCN(C(=O)OC3(C)CCCCC3)CC2)c2ccc(Cl)cc21 | 1 | 0.3 | – | – | – |
| Cn1cncc1CC1=Cc2cccnc2[C@H](N2CCN(C(=O)Nc3ccc(C#N)cc3)CC2)c2ccc(Cl)cc21 | – | 9.6 | – | Not Active | – |
| CO[C@H](C1=Cc2cccnc2[C@@H](N2CCN(C(=O)OC(C)(C)C)CC2)c2ccc(Cl)cc21)c1cncn1C | 10 | 4.8 | – | – | – |
| Cn1cncc1[C@H](O)C1=Cc2cccnc2[C@@H](N2CCN(C(=O)OC3CCCC3)CC2)c2ccc(Cl)cc21 | 0.5 | 0.76 | – | – | – |
| Cn1cncc1[C@H](O)C1=Cc2cccnc2[C@@H](N2CCN(C(=O)OC3CCCCC3)CC2)c2ccc(Cl)cc21 | 1 | 1 | – | – | – |
| N#Cc1ccc(NC(=O)N2CCN([C@H]3c4ccc(Cl)cc4C(Cc4cnc[nH]4)=Cc4cccnc43)CC2)cc1 | 4 | 0.31 | – | – | – |
| Cn1cncc1CC1=Cc2cccnc2[C@@H](N2CCN(C(=O)Nc3ccc(C#N)cc3)CC2)c2ccc(Cl)cc21 | 0.5 | 0.29 | – | – | – |
| CC(C)OC(=O)N1CCN([C@H]2c3ccc(Cl)cc3C([C@@H](O)c3cncn3C)=Cc3cccnc32)CC1 | 0.5 | 0.75 | – | – | – |
| CO[C@@H](C1=Cc2cccnc2[C@@H](N2CCN(C(=O)OC(C)(C)C)CC2)c2ccc(Cl)cc21)c1cncn1C | 4 | 2.1 | – | – | – |
| Cn1cncc1[C@H](O)C1=Cc2cccnc2[C@@H](N2CCN(C(=O)Nc3ccc(C#N)cc3)CC2)c2ccc(Cl)cc21 | 0.5 | 0.5 | – | – | 0.1 |
| Cn1cncc1[C@@H](O)C1=Cc2cccnc2[C@@H](N2CCN(C(=O)OC(C)(C)C)CC2)c2ccc(Cl)cc21 | – | 12 | – | Not Active | – |
| Cn1cncc1[C@H](O)C1=Cc2cccnc2[C@@H](N2CCN(C(=O)NCc3ccccc3)CC2)c2ccc(Cl)cc21 | 2.7 | 0.13 | – | – | – |
| CC(=O)O[C@H](C1=Cc2cccnc2[C@@H](N2CCN(C(=O)OC(C)(C)C)CC2)c2ccc(Cl)cc21)c1cncn1C | 1 | 5.5 | – | – | – |
